Data as given in patent publication US20250197356A1, “METHOD FOR SYNTHESIZING NUCIFERINE OR DERIVATIVE THEREOF, DERIVATIVE OF NUCIFERINE AND USE THEREOF” (HUAQIAO UNIVERSITY, priority 2022, published 2025).

Key:
hyperlipidemia rats [1] = experiment: Oil red O staining of liver in hyperlipidemia rats; assay type: in vivo, SD rats; details: compared with the model group, 20 mg/(kg d)
Source text: (§1) Animals: 54 SPF-grade SD rats, weighing 120±10 g, provided by Laboratory Animal Business Department, Shanghai Family Planning Research Institute, China, Animal license number: SCXK(Shanghai)2018-0006.
(§2) Drug to be tested: Nuciferine purchased from Shanghai Aladdin Biochemical Technology Co., Ltd., China, and its derivatives (purity >99%) that were synthesized in the laboratory by the methods of Examples 2-7.
Modeling scheme: 54 adult rats of 120±10 g were selected and fed adaptively for three days. They were then randomly divided to 6 groups, 9 animals for each group. They were blank control group, model group, positive control group, nuciferine group, and nuciferine structural modification group. The blank control group was fed with normal diet. […] The feeding and modeling time was 5 weeks. Within 4 weeks after modeling, continuous administration was performed: the blank control group and model group were given 0.2 mL of distilled water by gastric gavage; the positive control group was administrated 20 mg/(kg d) of simvastatin; while the treatment group was administrated 20 mg/(kg d) of nuciferine or 20 mg/(kg d) of a derivative of nuciferine (compounds 6a-6f). […]

TNF-α = experiment: Immunohistochemistry of liver of hyperlipidemia rats; assay type: in vivo, SD rats; details: compared with the model group, 20 mg/(kg d)
Source text: as §1, §2
(§3) Other reagents: AST, ALT, TC, TG, NEFA, Bun, Cr, CAT, GSH-Px, GSH, MDA test kits, purchased from Nanjing Jiancheng Bioengineering Institute, China; HL and PL test kits, purchased from Jianglai Biotechnology Co., Ltd., China; experimental reagents such as anhydrous ethanol, xylene, isopropanol neutral gum, purchased from Sinopharm Chemical Reagent Co., Ltd., China; HE dye solution, DAB color development agent, and oil red O dye solution, purchased from KeyGEN Biotechnology Co., Ltd, China; Antibodies IL-6 and TNF-α, purchased from Abcam Limited.
(§4) Modeling scheme: 54 adult rats of 120±10 g were selected and fed adaptively for three days. They were then randomly divided to 6 groups, 9 animals for each group. They were blank control group, model group, positive control group, nuciferine group, and nuciferine structural modification group. The blank control group was fed with normal diet. […] The feeding and modeling time was 5 weeks. […]

IL-6 = experiment: as above; assay type: in vivo, SD rats; details: compared with the model group, 20 mg/(kg d)
Source text: as §1, §2, §3, §4

hyperlipidemia rats [2] = experiment: Serum biochemical indicators in high-fat diet hyperlipidemia rats; assay type: in vivo, SD rats; details: for LDL-C / TC / TG / ALT (U/L) / AST (U/L) / Bun / Cr: serum, 20 mg/(kg d) by gastric gavage, 4 weeks; for ALT (U/L) / AST (U/L) / Bun / Cr: x ± s, n = 9
Source text: as §1, §2, §3
(§5) Modeling scheme: 54 adult rats of 120±10 g were selected and fed adaptively for three days. They were then randomly divided to 6 groups, 9 animals for each group. They were blank control group, model group, positive control group, nuciferine group, and nuciferine structural modification group. The blank control group was fed with normal diet. […] The feeding and modeling time was 5 weeks. Within 4 weeks after modeling, continuous administration was performed: the blank control group and model group were given 0.2 mL of distilled water by gastric gavage; the positive control group was administrated 20 mg/(kg d) of simvastatin; while the treatment group was administrated 20 mg/(kg d) of nuciferine or 20 mg/(kg d) of a derivative of nuciferine (compounds 6a-6f).
Blood sample collection: 24 h after the last gastric gavage administration, eyeballs were taken out and blood was drawn. Whole blood was collected in an EP tube, and centrifuged at 3000 r/min and 4° C. for 10 min, and the supernatant was collected and stored at −20° C. for blood biochemical indicator test.
(§6) Biochemical indicator determination: indicators AST, ALT, TC, TG, NEFA, Bun, Cr, CAT, GSH-Px, GSH, MDA, HL, PL were determined according to the instructions of the kits.

hyperlipidemia rats [3] = experiment: Liver appearance and HE histopathological observation in hyperlipidemia rats; assay type: in vivo, SD rats; details: compared with the model group, 20 mg/(kg d)
Source text: as §1
(§7) Modeling scheme: 54 adult rats of 120±10 g were selected and fed adaptively for three days. They were then randomly divided to 6 groups, 9 animals for each group. They were blank control group, model group, positive control group, nuciferine group, and nuciferine structural modification group. The blank control group was fed with normal diet. […] The feeding and modeling time was 5 weeks.
(§8) Liver tissue sample collection: the rats were killed by dislocation, and the liver was taken out immediately after death, which was observed by naked eye to find out whether there was abnormal color and lesions, and was then rinsed with ice normal saline. The left lobe of the liver was quickly cut into small pieces and fixed in 10% formaldehyde overnight for sectioning. The tissue of the right lobe of the liver was quickly wrapped in tin box and stored at −80° C. for later use.

hyperlipidemia rats [4] = experiment: Liver tissue homogenate biochemical indicators in high-fat diet hyperlipidemia rats; assay type: in vivo, SD rats; details: for CAT (U/mgprot) / GSH (μmol/gprot) / GSH-Px (U/mgprot) / HL (U/mgprot) / LPL (U/mgprot) / MDA (nmol/mgprot) / NEFA (μmol/g prot) / TG (mmol/g prot): liver tissue, 20 mg/(kg d) by gastric gavage, 4 weeks, x ± s, n = 9
Source text: as §1, §2, §3, §5, §8
Preparation of 10% liver homogenate: the liver wrapped in tin box and stored in the ultra-low temperature freezer at −80° C. was taken out, and quickly placed on an ice box. 0.2 g of liver tissue was accurately taken, and ice normal saline with a volume 9 times that of the liver issue was added thereto. 10% tissue homogenate was formed by grounding and mixing, and then centrifuged at 3000 r/min and 4° C. for 10 min. The supernatant was collected for later use.
as §6

hyperlipidemia rats [5] = experiment: Liver and kidney indexes in high-fat diet hyperlipidemia rats; assay type: in vivo, SD rats; details: 20 mg/(kg d) by gastric gavage, 4 weeks, x ± s, n = 9
Source text: as §1, §7, §8

[6] = TCMSP database, screening threshold OB ≥30%; cited from earlier work

SMILES	LDL-C (hyperlipidemia rats [2]) [mmol/L]	TC (hyperlipidemia rats [2]) [mmol/L]	TG (hyperlipidemia rats [2]) [mmol/L]	ALT (U/L) (hyperlipidemia rats [2])	AST (U/L) (hyperlipidemia rats [2])	Bun (hyperlipidemia rats [2]) [mmol/L]	Cr (hyperlipidemia rats [2]) [µmol/L]	CAT (U/mgprot) (hyperlipidemia rats [4])	GSH (μmol/gprot) (hyperlipidemia rats [4])	GSH-Px (U/mgprot) (hyperlipidemia rats [4])	HL (U/mgprot) (hyperlipidemia rats [4])	LPL (U/mgprot) (hyperlipidemia rats [4])	MDA (nmol/mgprot) (hyperlipidemia rats [4])	NEFA (μmol/g prot) (hyperlipidemia rats [4])	TG (mmol/g prot) (hyperlipidemia rats [4])	Kidney index (%) (hyperlipidemia rats [5])	Liver index (%) (hyperlipidemia rats [5])	other results
COc1cc2c3c(c1OC)-c1ccccc1C[C@H]3N(C)CC2 [Nuciferine]	0.53 ± 0.12	1.90 ± 0.19	0.48 ± 0.04	13.97 ± 5.71	6.43 ± 1.56	3.27 ± 0.22	52.59 ± 4.81	28.44 ± 3.34	377.68 ± 137.77	720.65 ± 59.57	0.47 ± 0.05	0.43 ± 0.07	0.92 ± 0.15	99.87 ± 8.25	0.08 ± 0.01	0.68 ± 0.04	4.52 ± 0.30	Oil red O-stained liver sections: lipid accumulation (FIG. 10) (hyperlipidemia rats [1]): reduced fat accumulation; Expression level of TNF-α in liver (FIG. 12) (TNF-α): decrease; Expression level of IL-6 in liver (FIG. 11) (IL-6): decrease; Content of HDL-C in the serum, result in words (hyperlipidemia rats [2]; compared with the model group): significantly increases; Serum AST and ALT contents, result in words (hyperlipidemia rats [2]; compared with the model group): best effect; HE-stained liver tissue: lipid vacuoles and inflammatory infiltration (FIG. 9) (hyperlipidemia rats [3]): lipid vacuoles in hepatocytes are significantly reduced; HL and LPL contents in liver tissue, result in words (hyperlipidemia rats [4]; compared with the model group): best effect; NEFA content in liver tissue, result in words (hyperlipidemia rats [4]; compared with the model group): significantly decreases; OB/% (oral bioavailability) [6]: 34.43%
COc1cc2c3c(c1OC)-c1ccccc1CC3N(C(=O)c1ccccc1)CC2 (centres unmarked) [Compound 6a, Benzoylnuciferine]	0.54 ± 0.09	1.94 ± 0.18	0.56 ± 0.05	15.46 ± 8.79	7.85 ± 2.23	3.16 ± 0.17	51.82 ± 7.06	26.06 ± 2.69	360.02 ± 43.63	550.96 ± 60.97	0.35 ± 0.03	0.27 ± 0.03	0.94 ± 0.27	107.69 ± 6.44	0.10 ± 0.02	0.68 ± 0.04	4.58 ± 0.29	Liver appearance (photographs, FIG. 8) (hyperlipidemia rats [3]): more brittle
